According to patent publication US20260206755A1, “COMPOUNDS AND COMPOSITIONS HAVING KNOCK-DOWN OR BLOOD FEED INHIBITION ACTIVITY AGAINST INSECT PESTS” (priority 2017, published 2026):
Where two headings read alike, the source gives them in different places.

Tested on: Anopheles stephensi
Test: Anopheles stephensi treated well plate contact test: knockdown and mortality
Format: in vivo
Details: for mortality at 0.2 ppm / pest or weed control at 0.2 ppm / mortality at 2 ppm / pest or weed control at 2 ppm / mortality at 20 ppm / pest or weed control at 20 ppm / mortality at 200 ppm / pest or weed control at 200 ppm / mortality at 0.02 ppm / pest or weed control at 0.02 ppm: Anopheles stephensi; for pest or weed control at 0.2 ppm / pest or weed control at 2 ppm / pest or weed control at 20 ppm / pest or weed control at 200 ppm / Knock Down, with TFNA-AM / pest or weed control at 0.02 ppm: knockdown after 1 hour; for pest or weed control at 0.2 ppm / pest or weed control at 2 ppm / pest or weed control at 20 ppm / pest or weed control at 200 ppm / pest or weed control at 0.02 ppm: read-out: Knock Down, without TFNA-AM; for mortality at 200 ppm / pest or weed control at 200 ppm: test compound 200 ppm; for pest or weed control at 200 ppm: adult females
Procedure: Examples Anopheles stephensi (Indian Malaria Mosquito)
The individual wells of twelve (12) well tissue culture plates were treated with 200 μl of an ethanol solution containing a test compound of Table 1 or Table 2 at a defined concentration and repeated with also 200 μl of an ethanol solution containing in addition 2 ppm TFNA-AM. Once the deposits were dry, five non-blood fed adult female Anopheles stephensi (between two to five day old) were added to each well, and sustained with a 10% sucrose solution in a cotton wool plug. Assessment of the knockdown after 1 hour, and mortality after 24 and 48 hours was carried out.
In case of multiple tests, the mean value is reported.

[1] = test compound 0.2 ppm, without TFNA-AM, after 24 hours, read-out: mortality % 24, without TFNA-AM
[2] = test compound 0.2 ppm, without TFNA-AM, after 48 hours, read-out: mortality % 48, without TFNA-AM
[3] = test compound 0.2 ppm, without TFNA-AM
[4] = test compound 2 ppm, without TFNA-AM, after 24 hours, read-out: mortality % 24, without TFNA-AM
[5] = test compound 2 ppm, without TFNA-AM, after 48 hours, read-out: mortality % 48, without TFNA-AM
[6] = test compound 2 ppm, without TFNA-AM
[7] = test compound 20 ppm, without TFNA-AM, after 24 hours, read-out: mortality % 24, without TFNA-AM
[8] = test compound 20 ppm, without TFNA-AM, after 48 hours, read-out: mortality % 48, without TFNA-AM
[9] = test compound 20 ppm, without TFNA-AM
[10] = without TFNA-AM, after 24 hours, read-out: mortality % 24, without TFNA-AM
[11] = without TFNA-AM, after 48 hours, read-out: mortality % 48, without TFNA-AM
[12] = test compound 0.2 ppm plus 2 ppm TFNA-AM, after 48 hours
[13] = test compound 0.2 ppm plus 2 ppm TFNA-AM
[14] = test compound 2 ppm plus 2 ppm TFNA-AM, after 48 hours
[15] = test compound 2 ppm plus 2 ppm TFNA-AM
[16] = test compound 20 ppm plus 2 ppm TFNA-AM, after 24 hours
[17] = test compound 20 ppm plus 2 ppm TFNA-AM, after 48 hours
[18] = test compound 20 ppm plus 2 ppm TFNA-AM
[19] = test compound 200 ppm plus 2 ppm TFNA-AM, after 24 hours
[20] = test compound 200 ppm plus 2 ppm TFNA-AM, after 48 hours
[21] = test compound 200 ppm plus 2 ppm TFNA-AM
[22] = test compound 0.2 ppm plus 2 ppm TFNA-AM, after 24 hours
[23] = 24 h, read-out: mortality % 24, without TFNA-AM
[24] = 48 h, read-out: mortality % 48, without TFNA-AM
[25] = test compound 0.02 ppm, without TFNA-AM
[26] = test compound 0.02 ppm plus 2 ppm TFNA-AM, after 24 hours
[27] = test compound 0.02 ppm plus 2 ppm TFNA-AM
[28] = test compound 2 ppm plus 2 ppm TFNA-AM, after 24 hours

Compound	mortality at 0.2 ppm [1]	mortality at 0.2 ppm [2]	pest or weed control at 0.2 ppm [3]	mortality at 2 ppm [4]	mortality at 2 ppm [5]	pest or weed control at 2 ppm [6]	mortality at 20 ppm [7]	mortality at 20 ppm [8]	pest or weed control at 20 ppm [9]	mortality at 200 ppm [10]	mortality at 200 ppm [11]	pest or weed control at 200 ppm (without TFNA-AM)	mortality % 48, with TFNA-AM [12]	Knock Down, with TFNA-AM [13]	mortality % 48, with TFNA-AM [14]	Knock Down, with TFNA-AM [15]	mortality % 24, with TFNA-AM [16]	mortality % 48, with TFNA-AM [17]	Knock Down, with TFNA-AM [18]	mortality % 24, with TFNA-AM [19]	further results
CN/C(=N/CC1CCOC1)N[N+](=O)[O-] (stereo not shown) [Dinotefuran]	0%	0%	0%	40%	40%	0%	40%	80%	0%	100%	100%	40%	60%	100%	60%	100%	100%	100%	100%	100%	mortality % 48, with TFNA-AM [20]: 100%; Knock Down, with TFNA-AM [21]: 100%
CN1COCN(Cc2cnc(Cl)s2)/C1=N\[N+](=O)[O-] [Thiamethoxam]	0%	0%	0%	40%	40%	0%	60%	40%	0%	80%	80%	0%	–	100%	100%	100%	–	100%	100%	100%	mortality % 24, with TFNA-AM [22]: 20%; mortality % 48, with TFNA-AM [20]: 100%; Knock Down, with TFNA-AM [21]: 100%
CNC(=O)Oc1ccccc1OC(C)C [Propoxur]	–	–	0%	–	–	100%	–	–	100%	–	–	–	100%	100%	100%	100%	100%	100%	100%	–	mortality at 0.02 ppm [23]: 0%; mortality at 0.2 ppm [23]: 100%; mortality at 2 ppm [23]: 100%; mortality at 20 ppm [23]: 100%; mortality at 0.02 ppm [24]: 0%; mortality at 0.2 ppm [24]: 100%; mortality at 2 ppm [24]: 100%; mortality at 20 ppm [24]: 100%; pest or weed control at 0.02 ppm [25]: 0%; mortality % 24, with TFNA-AM [26]: 40%; mortality % 48, with TFNA-AM (test compound 0.02 ppm plus 2 ppm TFNA-AM, after 48 hours): 40%; Knock Down, with TFNA-AM [27]: 100%; mortality % 24, with TFNA-AM [22]: 100%; mortality % 24, with TFNA-AM [28]: 100%
O=[N+]([O-])NC1=NCCN1Cc1ccc(Cl)nc1 [Imidacloprid]	0%	0%	0%	20%	20%	0%	20%	60%	0%	40%	60%	40%	0%	100%	100%	100%	100%	100%	100%	100%	mortality % 24, with TFNA-AM [28]: 100%; mortality % 48, with TFNA-AM [20]: 100%; Knock Down, with TFNA-AM [21]: 100%
CO/C=C(/C(=O)OC)c1ccccc1Oc1nc(C(C)(C)C)ns1 [Compound 48]	0%	0%	20%	100%	100%	60%	100%	100%	100%	100%	100%	100%	100%	100%	100%	100%	100%	100%	100%	100%	mortality % 24, with TFNA-AM [22]: 80%; mortality % 24, with TFNA-AM [28]: 100%; mortality % 48, with TFNA-AM [20]: 100%; Knock Down, with TFNA-AM [21]: 100%
CCC(Nc1ncnc(C)c1Cl)c1ccc(OC(F)F)cc1 (stereo not shown) [Diflumetorim]	0%	0%	0%	60%	60%	30%	100%	100%	100%	100%	100%	100%	10%	100%	90%	100%	100%	100%	100%	100%	mortality % 24, with TFNA-AM [22]: 20%; mortality % 24, with TFNA-AM [28]: 90%; mortality % 48, with TFNA-AM [20]: 100%; Knock Down, with TFNA-AM [21]: 100%
CN/C(=N\[N+](=O)[O-])NCc1cnc(Cl)s1 [Clothianidin]	0%	0%	0%	0%	0%	0%	0%	20%	0%	0%	20%	0%	0%	100%	100%	100%	100%	100%	100%	100%	mortality % 24, with TFNA-AM [28]: 100%; mortality % 48, with TFNA-AM [20]: 100%; Knock Down, with TFNA-AM [21]: 100%
CC1(C)C(C=C(Cl)Cl)C1C(=O)OC(C#N)c1cccc(Oc2ccccc2)c1 (stereo not shown) [Cypermethrin]	0%	40%	0%	100%	100%	100%	100%	100%	100%	–	–	–	100%	100%	100%	100%	100%	100%	100%	–	mortality at 0.02 ppm (test compound 0.02 ppm, without TFNA-AM, after 24 hours, read-out: mortality % 24, without TFNA-AM): 0%; mortality at 0.02 ppm (test compound 0.02 ppm, without TFNA-AM, after 48 hours, read-out: mortality % 48, without TFNA-AM): 20%; pest or weed control at 0.02 ppm [25]: 0%; mortality % 24, with TFNA-AM [26]: 80%; Knock Down, with TFNA-AM [27]: 100%; mortality % 24, with TFNA-AM [22]: 100%; mortality % 24, with TFNA-AM [28]: 100%
